Measurements as given in patent US9440966B2, “Compounds for treatment of metabolic syndrome” (SJT MOLECULAR RESEARCH, S.L., priority 2011, dated 2016).
“Also recorded” adds a separate entry of the source.

Assays:
normoglycemic rats [1] = assay: Oral glucose tolerance test in normoglycemic rats (Examples 27, 28); format: in vivo, Male Wistar rats
Protocol: (§1) Male Wistar rats were utilized provided by Mato Grosso do Sul's Federal University's Biotherium. Until the experiments were carried out, the animals have had free access to feed and water. The room temperature was kept at 22±2° C. and the light/dark cycle was of 12 hours.
The glucose tolerance test is a reference method for the diagnosis of diabetes or glucose intolerance (5).
Distinct rat groups were orally treated, once a day, with 3-(carbohydrazyl-N′-phenylsubstituted)-1-benzosubstituted-β-carbolinic-3-carbohydrazide (compound 7a or ANIS-BZ) at doses: 0.5, 1 or 5 mg/kg or vehicle (control) for 3 days. Similarly, another rat group received metformin (reference drug used for lowering glucose serum levels) in a 300 mg/kg dose, orally, once a day for 3 days. The oral glucose tolerance test was carried out by administering of a glucose solution (2 g/kg body mass). Glycemia was determined at zero time (before oral administering) and at 60 minutes after the glucose overload.
Distinct groups of rats were treated orally, once a day, with N(-ethylamine)-1-benzosubstituted-β-carboline-3-carboxamide (compound 4a or ANIS-NH2) at doses: 0.5, 1 or 5 mg/kg, or vehicle for 3 days. Similarly, another group of rats received metformin in a 300 mg/kg dose orally for 3 days once a day. The oral glucose tolerance test was done under the administration of a glucose solution (2 g/kg body mass). Glycemia will be determined at the zero (before oral administration) time and 60 minutes after glucose overload.

SHR hypertensive rats [2] = assay: Plasma cholesterol levels test in SHR hypertensive rats; format: in vivo, Male SHR
Protocol: (§2) Distinct rat groups were orally treated, once a day, with 5 mg/kg of compounds 4a or 5a or 6a during the first 4 days, 10 mg/kg during the next 4 days and 15 mg/kg until the end of the treatment period or vehicle (control) for the same days. Similarly, another rat group received metformin (MET) (reference drug used for lowering glucose serum levels) in a 300 mg/kg dose, orally, from day 1 to the end of the treatment. Plasma cholesterol levels were measured in triplicate 12 hours after drug administration by the cholesterol oxidase/peroxidase method (BioSystems S.A, Barcelona, Spain). Blood samples were obtained by femoral vein punction. This method was chosen because of its noninvasive character, enabling daily measurements with the same rats throughout the entire treatment.
(§3) Male SHR were provided by Charles River Laboratories (USA). Until the experiments were carried out, the animals have had free access to feed and water. The room temperature was kept at 22±2° C. and the light/dark cycle was of 12 hours. All procedures were submitted to the Animal Experimentation Ethics Committee.
as §2, with “metformin” for “metformin (MET)”, “Blood pressure was” for “Plasma cholesterol levels were”, “4” for “12”, “administration in warmed warmed, restrained, conscious rats” for “administration”, “tail-cuff” for “cholesterol oxidase/peroxidase”, “with a computerized oscillometric system recorder (Nyprem, Cibertec).” for “(BioSystems S.A, Barcelona, Spain). Blood samples were obtained by femoral vein punction.”

SHR hypertensive rats [3] = assay: Plasma triglyceride levels test in SHR hypertensive rats; format: in vivo, Male SHR; conditions: 25 days of treatment (5-15 mg/Kg) oral
Protocol: as §3
as §2, with “of compound” for “of compounds”, “4a” for “4a or 5a or 6a”, “metformin” for “metformin (MET)”, “Plasma triglyceride” for “Plasma cholesterol”, “the glycerol phosphate” for “the cholesterol”

SHR hypertensive rats [4] = assay: Blood glucose levels test in SHR hypertensive rats; format: in vivo, Male SHR
Protocol: as §3, with “The food was removed 12 h before glucose determination. The” for “The”
Distinct rat groups were orally treated, once a day, with 5 mg/kg of compound 4a during the first 4 days, 10 mg/kg during the next 4 days and 15 mg/kg until the end of the treatment period or vehicle (control) for the same days. Similarly, another rat group received metformin in a 300 mg/kg dose, orally, from day 1 to the end of the treatment. Blood glucose levels were measured in triplicate 12 hours after drug administration with the aid of a GLUCOCARD TM G meter, GT-1810. Results were compared with the effect of metformin […]. Blood samples were obtained by femoral vein punction. This method was chosen because of its noninvasive character, enabling daily measurements with the same rats throughout the entire treatment.

[5] = system: Drosophila melanogaster (Oregon-R strain); assay: Toxicology study: larva-to-adult viability and development time; conditions: in vivo
From the text: The purpose of this study was to test and compare the potential toxic effects of compounds 5a, 6a and 7a on the larva-to-adult viability and development time in a Drosophila melanogaster (Oregon-R) flies. These studies have a relevant predictive role with the aim to anticipate possible adverse toxicological effects that may happen during preclinical studies with animal, preferably mammals. In addition, the data provided are highly quantitative.
Drosophila melanogaster (Oregon-R) flies were obtained by the University of the Balearic Islands (Spain). […] The larvae were seeded on standard food supplemented with the appropriate dose of compounds tested. Each compound was tested at 1, 10, 100, 1000 and 2000 μg/ml dissolved in standard food.
Fly adults were transferred from the serial transfer system to bottles with fresh food for 24 h. Adults 5 days old were placed on egg collecting devices (layers) containing a mixture of agar, water, acetic acid, and ethyl alcohol, with a drop of active yeast on it. Every 2 h., the layer glasses were changed, in this way, the eggs of a glass have similar age, with a maximum difference of 2 h. among them. The glasses of the layers were kept at 25° C. for at least 22 h. in Petri dishes until larvae hatched. Fifty larvae were picked with a lancet under a stereoscopic microscope and were seeded into 10×2 cm vials with 5 ml food. Vials were supplemented with 4a, 5a and 7a at 1, 10 and 100 μg/ml. As positive control we used cupric acetate (toxic) at 350 μg/ml.
The number of adult flies which emerged from each vial was counted daily until the exhaustion of the culture. The parameters studied were the larvae-to-adult viability (V) and development time.
Viability is expressed as V=NA/NL, where NL is the input number of larvae ([…] in our case) and NA the output number of adults emerging from these NL larvae. Development time was measured in days by the formula DT=ΣNidi/ΣNi where Ni is the number of flies emerging on the day di after the larvae were placed in the medium.
The data are expressed as the mean±SEM values from 3 independent experiments involving triplicate vials at the number of flies indicated.

female Swiss mice = assay: Acute oral toxicology study in a mice model; format: in vivo; conditions: oral 2000 mg/kg single dose, observation for 14 days
Protocol: The experiments were conducted using female Swiss mice (20-30 g), housed under a 12-h light-dark cycle, with controlled humidity (60-80%), and temperature (22±1° C.). Food and water were freely available to the mice.
Female mice (n=6) were orally (2000 mg/kg) administered with a single dose of 4a, 5a, and 7a for the observation of acute signs of toxicity until 14 days. […] The observations comprised the behavior and manifestations of the toxic symptoms, and were carried out according to the Guidelines of the Organization for Economic Cooperation and Development (OECD, 2008).
All compounds were dissolved in sterile saline and were administered by oral gavage to mice based in the weight, for example 20 g received 20 μL.
The data are expressed as mean±S.E.M. of experiments. Statistical significance was determined through one-way analysis of variances (ANOVA), followed by either Newman-Keuls test. A p<0.05 was considered statistically significant. Graphs were drawn and statistical analysis was carried out using GraphPad Prism version 5.00 for Windows (GraphPad Software, San Diego, Calif., USA).

normoglycemic rats [6] = assay: Oral glucose tolerance test in normoglycemic rats (Examples 36, 37); format: in vivo, Male Wistar rats; conditions: metformin 300 mg/kg orally daily
Protocol: as §1, with “rats (200-300 g)” for “rats”, “C. with controlled humidity (60-80%)” for “C.”
The glucose tolerance test was evaluated as described by Al-Awaki et al (6).
Rats were randomly divided into […] groups of four animals that were control group that received only a solution of saline, compound 23b group (10 mg/kg), compound 21a group (10 mg/kg) and metformin 300 mg/kg group. Respective treatments were made orally and daily for five days.
(§4) On day 1, 3, and 5, different groups of rats were fasted overnight (at least 12 h) prior to the test, but with given water ad libitum. The oral glucose tolerance test was carried out by administering of a glucose solution (2 g/kg body weight) according to Al-Awadi et al (6). Glycemia was determined in blood samples collected from the tail vein at −30 minutes (just before the administration of the oral extract) time 0 (prior to the glucose overload) and at 60 minutes after the glucose overload. Serum glucose concentrations were measured by the glucose oxidase method (7) using commercial kit (Accuchek-performa (Roche)) according to the manufacture's instructions.
as §1, with “rats (200-300 g)” for “rats”, “C. with controlled humidity (60-80%)” for “C.”, “hours. All procedures were submitted to the Animal Experimentation Ethics Committee.” for “hours.”
The compounds 21b, 23a and 23d were diluted firstly in 20 μl of ethanol and after in 980 μl de saline. Compounds 21e, 23e and 26b were dissolved in sterile saline and were administered by oral gavage to rats based in the weight, for example 200 g received 200 μL.
54 rats were randomly divided into […] groups of five-eight animals that were control group (n=8) that received only a solution of vehicle, compound 21b group (n=5) (10 mg/kg), compound 21e group (n=5) (10 mg/kg), compound 23e group (n=5) (10 mg/kg), compound 23a group (n=5) (10 mg/kg), compound 23d group (n=5) (10 mg/kg), compound 26b group (n=5) (10 mg/kg) and metformin (n=6) 300 mg/kg group. Respective treatments were made orally and daily for five days.
as §4, with “manufactures's” for “manufacture's”

SHR hypertensive rats [7] = assay: Systolic blood pressure test in SHR hypertensive rats; format: in vivo, Male Spontaneously Hypertensive Rats (SHR); conditions: metformin 300 mg/kg oral
Protocol: as §3, with “Spontaneously Hypertensive Rats (SHR)” for “SHR”
as §2, with “Blood samples were obtained by femoral vein punction. This method was chosen because of its noninvasive character, enabling daily measurements with the same rats throughout the entire treatment.” left out
Distinct rat groups were orally treated, once a day, with 5 mg/kg of compounds 4a or 5a or 6a during the first 4 days, 10 mg/kg during the next 4 days and 15 mg/kg until the end of the treatment period or vehicle (control) for the same days. […] Blood pressure was measured in triplicate 4 hours after drug administration in warmed warmed, restrained, conscious rats by the tail-cuff method with a computerized oscillometric system recorder (Nyprem, Cibertec). […]

SMILES	glycemic levels of animals that received an oral glucose overload (normoglycemic rats [1]; after 3 days, 0.5 mg/kg oral once a day, vs control group)	glycemic levels of animals that received an oral glucose overload (normoglycemic rats [1]; after 3 days, 1 mg/kg oral once a day, vs control group)	glycemic levels of animals that received an oral glucose overload (normoglycemic rats [1]; after 3 days, 5 mg/kg oral once a day, vs control group, 5 mg/kg)	glycemic levels of animals that received an oral glucose overload (normoglycemic rats [1]; first day, 5 mg/kg oral, vs control group, 60 min after glucose 2 g/kg)	plasma cholesterol levels (SHR hypertensive rats [2]; 25 days of treatment (15 mg/Kg) oral, effect more pronounced for 5a and 7a)	plasma triglyceride levels (SHR hypertensive rats [3])	blood glucose decrease compared to the vehicle-control group (SHR hypertensive rats [4]; doses from 5 to 15 mg/kg oral, treatment periods of 4-15 days)	larvae-to-adult viability and development time [5]	mortality or behavioral disorders (acute signs of toxicity) (female Swiss mice)	glycemic levels of animals that received an oral glucose overload (normoglycemic rats [1]; after 3 days, metformin 300 mg/kg oral once a day)	glycemic levels of animals that received an oral glucose overload (normoglycemic rats [1]; first day, metformin 300 mg/kg oral)	glucose levels in oral glucose tolerance test (normoglycemic rats [6]; fifth day)	glucose levels in oral glucose tolerance test (normoglycemic rats [6]; first day)	glucose levels in oral glucose tolerance test (normoglycemic rats [6]; third day)	inhibitory effect on systolic blood pressure (SHR hypertensive rats [7])	plasma cholesterol levels (SHR hypertensive rats [2]; 25 days, Metformin 300 mg/Kg oral)	effect on blood glucose levels (SHR hypertensive rats [4]; Metformin 300 mg/kg for 23 days)
COc1ccc(-c2nc(C(=O)NCCN)cc3c2[nH]c2ccccc23)cc1 [Compound 4a, N(-ethylamine)-1-benzosubstituted-β-carboline-3-carboxamide]	only the 1 and 5 mg/kg doses reduced statistically significant the glycemic levels	reduced statistically significant the glycemic levels	reduces the glycemic levels; also recorded: reduced statistically significant the glycemic levels	reduces the glycemic levels	inhibition of plasma cholesterol levels	statistically significant (p<0.05), inhibition of plasma triglyceride levels	5-7%	not affected	did not produce mortality or any behavioral disorders	–	–	–	–	–	–	–	–
CN(C)C(=N)N=C(N)N [metformin, reference compound]	–	–	–	–	–	–	–	–	–	induces reduction of glycemic levels	induces reduction of glycemic levels	reduced the glucose levels	significant reduction in glucose levels	induces reduction of glycemic levels; also recorded: significant reduction in glucose levels	This effect at 5-15 mg/kg is greater than that of metformin	inhibition of plasma cholesterol levels	slightly greater effect on blood glucose levels
